Reference: article PMC8465942, “Cyano- and Ketone-Containing Selenoesters as Multi-Target Compounds against Resistant Cancers” (Cancers, 2021)
One block for each compound: values may come before it.

Legend:
[1] = molecular target: ABCB1 (P-glycoprotein) in Colo 320 colonic adenocarcinoma cells (Homo sapiens, UniProt P08183); test: ABCB1 inhibition, rhodamine 123 accumulation by flow cytometry; conditions: 0.2 µM
Procedure: The inhibition of the ABCB1 multidrug efflux pump ABCB1 by the tested compounds was evaluated using flow cytometry, measuring the retention of rhodamine 123 by ABCB1 (P-glycoprotein) in Colo 320 colonic adenocarcinoma cells. Briefly, the cell number of colonic adenocarcinoma cells were adjusted to 2 × 10^6 cells/mL, re-suspended in serum-free RPMI-1640 medium in the case of colonic adenocarcinoma cells, and distributed in 0.5 mL aliquots into Eppendorf centrifuge tubes. The tested compounds were added at different concentrations (0.2 and 2 µM; from 1 and 10 mM stock solutions, respectively), and the samples were incubated for 10 min at room temperature. Tariquidar was applied as the positive control (0.2 µM final concentration), and DMSO was used as the solvent control (at 2 v/v%). Next, 10 µL (5.2 µM final concentration) of the fluorochrome rhodamine 123 (Sigma, St. Louis, MO, USA) was added to the samples and the cells were incubated for 20 min at 37 °C. After the incubation period, the cells were washed twice and re-suspended in 0.5 mL PBS for analysis. The fluorescence of the gated cell population was measured with a Partec CyFlow® flow cytometer (Partec, Münster, Germany). The percentage of the mean fluorescence intensity was calculated for the treated MDR cells as compared with the untreated cells. The results were obtained from a representative flow cytometry experiment in which at least 20,000 individual cells of the overall population were evaluated for the rhodamine 123 retained inside the cells. The fluorescence activity ratio (FAR) was calculated based on the following equation, which relates the measured fluorescence values: FAR=Colo320treated / Colo320control/Colo205treated / Colo205control
The parameters evaluated from flow cytometry experiments were: Forward Scatter Count (FSC, provides information about cell size); Side Scatter Count (SSC, proportional to cell granularity or internal complexity); FL-1 (Mean fluorescence of the cells), and Fluorescence Activity Ratio (FAR), which was calculated by the equation given above.

[2] = system: Colo 320/MDR-LRP human colonic adenocarcinoma cell line; test: Cytotoxicity (MTT) on resistant Colo 320 cells; assay type: cell-based
From the text: (§1) Three cell lines have been used in this study: the doxorubicin-sensitive Colo 205 (CCL-222, ATCC, Manassas, VA, USA) human colonic adenocarcinoma cell line; the multidrug resistant Colo 320/MDR-LRP expressing P-gp (MDR1)-LRP (CCL-220.1, ATCC) human colonic adenocarcinoma cell line; and the MRC-5 human embryonal lung fibroblast cell line (CCL-171, ATCC). The colon adenocarcinoma cell lines were purchased from LGC Promochem (Teddington, UK), and the MRC-5 cell line was purchased from Sigma-Aldrich (Merck KGaA, Darmstadt, Germany). Their culture conditions are as follows: Colo 205 (CCL-222, ATCC) and Colo 320/MDR-LRP expressing P-gp (MDR1)-LRP (CCL-220.1, ATCC) human colon adenocarcinoma cell lines were cultured in RPMI 1640 medium, supplemented with 10% FBS, 2 mM L-glutamine, 1 mM Na-pyruvate, and […]. The cell lines were incubated at 37 °C, 5% CO2, and 95% air atmosphere. The semi-adherent human colon cancer cells were detached with a Trypsin-Versene (EDTA) solution for 5 min at 37 °C. MRC-5 human embryonal lung fibroblast cells were cultured in EMEM containing 4.5 g/L of glucose and supplemented with a non-essential amino acid mixture, a selection of vitamins, and 10% FBS. The cell lines were incubated at 37 °C, 5% CO2, and 95% air atmosphere.
(§2) The effects of increasing concentrations of the compounds on cell growth were tested in 96-well flat-bottomed microtiter plates. Moreover, 10^4 of human colonic adenocarcinoma cells in 100 μL of the medium (RPMI-1640) were added to each well, except for the medium control wells. The adherent human embryonic lung fibroblast cell line was seeded in the EMEM medium for 4 h before the assay. The two-fold serial dilutions of the compounds were made in a separate plate (0.19–100 μM), and then transferred to the plates containing the adherent corresponding cell line. Culture plates were incubated at 37 °C for 24 h. At the end of the incubation period, 20 μL of MTT (thiazolyl blue tetrazolium bromide) solution (from a 5 mg/mL stock solution) were added to each well. After incubation at 37 °C for 4 h, 100 μL of sodium dodecyl sulfate (SDS) solution (10% SDS in 0.01 M HCl) was added to each well, and the plates were further incubated at 37 °C overnight. Cell growth was determined by measuring the optical density (OD) at 540 nm (ref. 630 nm) with a Multiscan EX ELISA reader (Thermo Labsystems, Cheshire, WA, USA). Inhibition of cell growth was expressed as IC50 values, defined as the inhibitory dose that reduces the growth of the cells exposed to the tested compounds by 50%. IC50 values and the SD of triplicate experiments were calculated by using GraphPad Prism software version 5.00 for Windows, with a non-linear regression curve fit (GraphPad Software, San Diego, CA, USA; www.graphpad.com, accessed on 12 July 2021). Doxorubicin (from a 2 mg/mL stock solution, Teva Pharmaceuticals) was used as a positive control.
(§3) The selectivity indexes (SI) were calculated as the ratio of the IC50 value in the non-tumour cells and the IC50 in the cancer cell lines. The compound’s activity towards cancer cells is considered as strongly selective if the selectivity index (SI) value is higher than 6, moderately selective if 3 < SI < 6, slightly selective if 1 < SI < 3, and non-selective if SI is lower than 1 [16].

[3] = Cytotoxicity (MTT) on normal MRC-5 fibroblasts; assay type: cell-based; conditions: human, MRC-5 embryonal lung fibroblast cells; 24 h, MTT; read-out: MRC-5 (IC50 µM) Mean
From the text: as §1, §2

[4] = system: Colo 205 human colonic adenocarcinoma cell line; test: Cytotoxicity (MTT) on sensitive Colo 205 cells; assay type: cell-based
From the text: as §1, §2, §3

[5] = system: MDR Colo 320 adenocarcinoma cells; test: Apoptosis induction (Annexin V-FITC / propidium iodide); assay type: cell-based, human; conditions: 20 µM
Procedure: The assay was carried out using an Annexin V-FITC Apoptosis Detection Kit Cat. No. PF 032 from Calbiochem (EMD Biosciences. Inc. La Jolla. CA), according to the manufacturer's instructions. […] The cell suspension was distributed into 1 mL aliquots (1 × 10^6 cells) into a 24-well microplate and incubated overnight at 37 °C, with 5% CO2. On the following day, the medium was removed and a fresh medium was added to the cells. The cells were incubated in the presence of Se-compounds for 3 h at 37 °C. […] After a 3 h induction period, the culture medium was removed, the cells were washed with PBS, and a fresh medium was added to the cells. The 24-well plates were incubated overnight at 37 °C, with 5% CO2. After the incubation, the supernatant was collected in a microfuge tube and 200 μL of 0.25 trypsin (Trypsin-Versene) was added to the wells until the cells detached from the surfaces of the wells. The cells were centrifuged at 2000× g for 2 min at room temperature, the supernatant was removed, and the cells were re-suspended in fresh serum-free medium. After this procedure, apoptosis assay was carried out according to the rapid protocol of the kit using Annexin V-FITC and propidium iodide staining. […] The data were analysed by FlowJo^TM software (BD Biosciences, San Jose, NJ, USA).

[6] = ratio IC50 non-tumour cells / IC50 cancer cells

Sequence of ABCB1 (P-glycoprotein) in Colo 320 colonic adenocarcinoma cells (P08183 whole entry): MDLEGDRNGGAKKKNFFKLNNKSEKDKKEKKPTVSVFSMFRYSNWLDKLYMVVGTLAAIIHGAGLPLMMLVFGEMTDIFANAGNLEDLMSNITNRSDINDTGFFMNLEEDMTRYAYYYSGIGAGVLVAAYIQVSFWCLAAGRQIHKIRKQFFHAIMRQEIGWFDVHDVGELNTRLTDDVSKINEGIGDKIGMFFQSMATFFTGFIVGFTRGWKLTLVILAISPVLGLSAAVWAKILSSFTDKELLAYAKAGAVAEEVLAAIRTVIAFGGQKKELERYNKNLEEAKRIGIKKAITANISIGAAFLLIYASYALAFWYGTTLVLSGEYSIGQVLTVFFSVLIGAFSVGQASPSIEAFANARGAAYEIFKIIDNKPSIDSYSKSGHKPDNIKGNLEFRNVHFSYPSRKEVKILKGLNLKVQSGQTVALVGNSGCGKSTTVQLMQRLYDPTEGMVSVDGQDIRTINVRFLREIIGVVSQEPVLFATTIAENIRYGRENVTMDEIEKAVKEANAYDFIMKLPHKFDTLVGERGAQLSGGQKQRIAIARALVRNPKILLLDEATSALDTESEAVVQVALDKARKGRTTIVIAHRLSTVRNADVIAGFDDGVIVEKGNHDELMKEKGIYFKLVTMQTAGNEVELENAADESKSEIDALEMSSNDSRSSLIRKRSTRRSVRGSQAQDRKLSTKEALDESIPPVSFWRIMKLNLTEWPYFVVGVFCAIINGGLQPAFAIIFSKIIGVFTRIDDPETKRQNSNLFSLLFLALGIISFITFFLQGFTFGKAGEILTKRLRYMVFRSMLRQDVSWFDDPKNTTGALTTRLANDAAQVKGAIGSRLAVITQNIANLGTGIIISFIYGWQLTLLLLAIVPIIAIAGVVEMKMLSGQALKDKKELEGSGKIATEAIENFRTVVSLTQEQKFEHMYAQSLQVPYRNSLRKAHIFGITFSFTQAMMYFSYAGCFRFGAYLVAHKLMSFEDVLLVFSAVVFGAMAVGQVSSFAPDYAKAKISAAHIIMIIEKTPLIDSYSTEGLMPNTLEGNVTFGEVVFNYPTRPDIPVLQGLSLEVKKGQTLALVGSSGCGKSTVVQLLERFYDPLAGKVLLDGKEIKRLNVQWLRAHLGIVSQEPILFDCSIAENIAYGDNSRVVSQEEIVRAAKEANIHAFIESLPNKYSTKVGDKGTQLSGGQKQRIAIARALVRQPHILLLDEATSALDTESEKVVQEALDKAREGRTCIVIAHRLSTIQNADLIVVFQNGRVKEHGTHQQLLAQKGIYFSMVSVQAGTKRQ

FSC (Forward Scatter Count) [1]: 1957
SSC (Side Scatter Count) [1]: 1074
FAR (fluorescence activity ratio) ([1]; rhodamine 123, FAR above 2 considered effective): 28.04
Structure (SMILES): COc1cc2c(cc1OC)CN(CCc1ccc(NC(=O)c3cc(OC)c(OC)cc3NC(=O)c3cnc4ccccc4c3)cc1)CC2 [Tariquidar, reference compound]

Structure (SMILES): COc1cccc2c1C(=O)c1c(O)c3c(c(O)c1C2=O)C[C@@](O)(C(=O)CO)C[C@@H]3O[C@H]1C[C@H](N)[C@H](O)[C@H](C)O1 [Dox., doxorubicin, reference compound]
IC50 ([2]; Homo sapiens, COLO 320, 24 h, MTT, read-out: Colo 320 (IC50 µM) Mean): 7.61 µM
SI MRC-5/Colo 320 [2, 6]: 0.36
IC50 at 24 h [3]: 2.73 µM
IC50 ([4]; Homo sapiens, COLO 205, 24 h, MTT, read-out: Colo 205 (IC50 µM) Mean): 3.46 µM
SI MRC-5/Colo 205 [4, 6]: 0.79

Structure (SMILES): c1ccc2c(c1)Nc1c(ccc3ccccc13)S2 [M627, 12H-benzo(α)phenothiazine, reference compound]
Cell Death (%) Treated Sample-Untreated Sample ([5]; positive control): 0.00%
Early Apoptosis (%) Treated Sample-Untreated Sample ([5]; positive control): 13.3%
Late Apoptosis (%) Treated Sample-Untreated Sample ([5]; positive control): 36.1%
Total Apoptotic Events (Early + Late, %) ([5]; positive control): 49.4%
Apoptosis Quotient (%) ([5]; reference): 100%
